Measured values published in ChEMBL document CHEMBL4610061, “Identification of novel GPR81 agonist lead series for target biology evaluation” (Bioorg Med Chem Lett, 2020).
≈ marks a conversion by molar mass, not a printed value. Calls of active or inactive are those of the source. The calls are words filed in the database; no cut-off is given here.

How the values were obtained:
[1] = Distribution coefficient, logD of compound at pH 7.4; type: physicochemical; details: octanol/water
[2] = Solubility of compound; type: physicochemical
[3] = target: T1, Hydroxycarboxylic acid receptor 1 (Homo sapiens, UniProt Q9BXC0); experiment: Agonist activity at human GPR81 overexpressed in CHO cells assessed as inhibition of forskolin-stimulated cAMP production; type: functional, cell-based
[4] = target: Growth hormone secretagogue receptor type 1 (Homo sapiens, UniProt Q92847); experiment: Displacement of [125I]-ghrelin from human GHS-R1a stably expressed in HEK cell membrane measured after 60 mins by gamma counter method; type: cell membranes
[5] = target: Hydroxycarboxylic acid receptor 2 (Homo sapiens, UniProt Q8TDS4); experiment: Agonist activity at human GPR109A receptor
Homo sapiens = organism: Homo sapiens; experiment: Selectivity index, ratio of IC50 for displacement of [125I]-ghrelin from human GHS-R1a stably expressed in HEK cell membrane measured after 60 mins by gamma counter method to EC50 for agonist activity at human GPR81 overexpressed in CHO cells assessed as inhibition of forskolin-stimulated cAMP production; type: cell membranes
[6] = target: T2, Protein Gpr81 (Rattus norvegicus) (UniProt G3V906); experiment: Agonist activity at rat GPR81 overexpressed in HEK293 cells by [35S]GTPgammaS binding assay; type: cell-based
T2 sequence (whole entry): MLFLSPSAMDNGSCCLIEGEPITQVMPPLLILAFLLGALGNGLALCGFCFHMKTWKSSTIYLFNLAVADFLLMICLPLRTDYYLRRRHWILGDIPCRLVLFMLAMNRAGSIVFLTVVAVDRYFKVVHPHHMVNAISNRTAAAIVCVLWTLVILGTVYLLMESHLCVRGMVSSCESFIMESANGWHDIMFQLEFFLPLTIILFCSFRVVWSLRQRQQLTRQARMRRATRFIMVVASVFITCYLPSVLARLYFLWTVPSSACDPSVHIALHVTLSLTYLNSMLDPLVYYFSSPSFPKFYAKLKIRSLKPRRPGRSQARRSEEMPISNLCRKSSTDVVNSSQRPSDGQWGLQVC

[7] = target: T1, Hydroxycarboxylic acid receptor 1; experiment: Agonist activity at human GPR81 overexpressed in CHO cells assessed as inhibition of forskolin-stimulated cAMP production at 10 uM relative to control; type: functional, cell-based

Sequence of Hydroxycarboxylic acid receptor 2 (Q8TDS4 whole entry): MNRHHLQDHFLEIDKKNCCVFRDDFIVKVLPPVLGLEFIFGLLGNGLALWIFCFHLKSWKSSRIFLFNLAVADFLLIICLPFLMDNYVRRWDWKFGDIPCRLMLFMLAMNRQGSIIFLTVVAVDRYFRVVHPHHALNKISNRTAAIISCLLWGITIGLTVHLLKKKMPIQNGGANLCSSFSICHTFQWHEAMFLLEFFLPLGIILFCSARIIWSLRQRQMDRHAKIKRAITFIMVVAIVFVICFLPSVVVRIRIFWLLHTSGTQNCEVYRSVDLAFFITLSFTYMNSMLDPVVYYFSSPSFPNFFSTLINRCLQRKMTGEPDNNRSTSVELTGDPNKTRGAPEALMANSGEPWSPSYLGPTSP
Sequence of Growth hormone secretagogue receptor type 1 (Q92847 whole entry): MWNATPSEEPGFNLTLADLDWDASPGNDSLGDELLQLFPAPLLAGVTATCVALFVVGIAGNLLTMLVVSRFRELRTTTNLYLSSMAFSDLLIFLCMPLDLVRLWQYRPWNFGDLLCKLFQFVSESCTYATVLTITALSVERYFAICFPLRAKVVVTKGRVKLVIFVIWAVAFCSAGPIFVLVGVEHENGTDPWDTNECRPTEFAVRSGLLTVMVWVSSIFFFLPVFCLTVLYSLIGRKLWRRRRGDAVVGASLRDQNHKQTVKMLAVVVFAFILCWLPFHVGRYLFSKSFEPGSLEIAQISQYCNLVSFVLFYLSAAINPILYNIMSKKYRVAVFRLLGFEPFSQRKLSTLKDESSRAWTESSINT
T1 sequence (Q9BXC0 whole entry): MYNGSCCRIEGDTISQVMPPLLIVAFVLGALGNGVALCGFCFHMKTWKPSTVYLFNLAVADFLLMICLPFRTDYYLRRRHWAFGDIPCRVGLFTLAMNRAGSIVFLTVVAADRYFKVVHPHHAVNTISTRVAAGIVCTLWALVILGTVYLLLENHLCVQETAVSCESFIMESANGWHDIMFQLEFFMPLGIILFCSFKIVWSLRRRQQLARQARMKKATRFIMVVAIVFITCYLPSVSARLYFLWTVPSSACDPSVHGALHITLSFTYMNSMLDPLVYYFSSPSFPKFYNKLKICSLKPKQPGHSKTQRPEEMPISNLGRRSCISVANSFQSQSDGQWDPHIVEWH

logD [1]	solubility [2]	EC50 [3]	IC50 [4]	EC50 [5]	Activity [6]	Efficacy [7]	SMILES	Ratio IC50/EC50 (Homo sapiens)
2.5	492 µM (≈ 289 µg/mL)	> 16000 nM	> 50000 nM				CCOc1cc(Cl)c(C(=O)N(C)C(=O)Nc2nc3ccc(CN4CCN(C)CC4)cc3s2)cc1N1CCOCC1	
2.8	1.5 µM (≈ 0.795 µg/mL)	410 nM	> 50000 nM	> 11000 nM			CCOc1cc(Cl)c(C(=O)Nc2nc3ccc(CN4CCN(C)CC4)cc3s2)cc1N1CCOCC1	> 80
3.9		360 nM					CCOc1cc(Cl)c(C(=O)NC(=O)Nc2nc3ccc(CN4CCN(C)CC4)cc3s2)cc1-c1ccn[nH]1	
3.9	< 0.31 µM	490 nM	5200 nM	> 22000 nM			CCOc1cc(Cl)c(-c2ncc(-c3nc4ccccc4s3)c(=O)[nH]2)cc1N1CCOCC1	
2.9		> 3700 nM					CCOc1cc(C)c(C(=O)NC(=O)Nc2nc3ccc(CN4CCN(C)CC4)cc3s2)cc1N1CCOCC1	
3.2	188 µM (≈ 105 µg/mL)	> 33000 nM	> 4970 nM				CCOc1cc(Cl)c(CNC(=O)Nc2nc3ccc(CN4CCN(C)CC4)cc3s2)cc1N1CCOCC1	
2	323 µM (≈ 201 µg/mL)	600 nM	> 50000 nM	> 6300 nM			CCOc1cc(Cl)c(C(=O)Nc2nc3ccc(S(=O)(=O)CCCN4CCN(C)CC4)cc3s2)cc1N1CCOCC1	> 80
		120 nM					CCOc1cc(Cl)c(C(=O)NC(=O)Nc2nc3c(s2)CCCC3)cc1N1CCOCC1	
2.7	95 µM (≈ 61.8 µg/mL)	54 nM	27000 nM	660 nM			CCOc1cc(Cl)c(C(=O)Nc2nc3ccc(S(=O)(=O)CCCN4CCN(C)CC4)cc3s2)cc1N1C[C@@H](C)O[C@@H](C)C1	500
3	0.2 µM (≈ 0.121 µg/mL)	23 nM	8 nM	123 nM	Active		CCOc1cc(Cl)c(C(=O)NC(=O)Nc2nc3ccc(S(=O)(=O)C4CCN(C)CC4)cc3s2)cc1-n1cccn1	
2.4		3600 nM				70%	CN1CCC(S(=O)(=O)c2ccc3nc(NC(=O)NC(=O)c4cc(-n5cccn5)c(F)cc4Cl)sc3c2)CC1	
2.9	4 µM (≈ 2.29 µg/mL)	74 nM	960 nM	2160 nM	Active		CCOc1cc(Cl)c(C(=O)NC(=O)Nc2nc3ccc(CN4CCN(C)CC4)cc3s2)cc1N1CCOCC1	
4.3	0.09 µM (≈ 0.0376 µg/mL)	1900 nM	> 50000 nM	12000 nM			CCOc1cc(Cl)c(C(=O)Nc2nc3ccccc3s2)cc1N1CCOCC1	> 80
3.8		19 nM					CCOc1cc(Cl)c(C(=O)NC(=O)Nc2nc3ccc(CN4CCN(C)CC4)cc3s2)cc1-n1cccn1	
3.2		769 nM					CCOc1cc(Cl)c(C(=O)NC(=O)Nc2ncc(C)s2)cc1N1CCOCC1	
1.6	61 µM (≈ 38.4 µg/mL)	240 nM	> 18000 nM	1600 nM			CCOc1cc(Cl)c(-c2ncc(-c3nc4ccc(S(=O)(=O)C5CCN(C)CC5)cc4s3)c(=O)[nH]2)cc1N1CCOCC1	
2.2		166 nM					CCOc1cc(Cl)c(C(=O)NC(=O)Nc2nc3ccc(S(=O)(=O)C4CCN(C)CC4)cc3s2)cc1N1CCOCC1	
2.9	5 µM (≈ 2.66 µg/mL)	110 nM	> 30000 nM	1600 nM			CCOc1cc(Cl)c(C(=O)Nc2nc3ccc(OC4CCN(C)CC4)cc3s2)cc1N1CCOCC1	> 80
2.6	29 µM (≈ 15.8 µg/mL)	75 nM	> 50000 nM	1900 nM			CCOc1cc(Cl)c(-c2ccc(-c3nc4c(s3)CN(C(=O)COC)CC4)c(=O)[nH]2)cc1N1CCOCC1	
1.7		895 nM					CCOc1cc(Cl)c(C(=O)NC(=O)Nc2nc3c(s2)CN(C(=O)CO)CC3)cc1N1CCOCC1	

logD [1]	solubility [2]	EC50 [3]	IC50 [4]	EC50 [5]	Activity [6]	Efficacy [7]	SMILES	Ratio IC50/EC50 (Homo sapiens)
4.4		260 nM					CCOc1cc(Cl)c(C(=O)NC(=O)Nc2cc3ccccc3s2)cc1N1CCOCC1	
3	155 to 231 µM (≈ 101 to 150 µg/mL)	270 to 350 nM	10000 to 14000 nM	1400 to 3200 nM			CCOc1cc(Cl)c(C(=O)Nc2nc3ccc(S(=O)(=O)CCCN4CCN(C)CC4)cc3s2)cc1N1C[C@H](C)O[C@@H](C)C1	> 80
3.4	< 0.5 µM	5 nM	460 nM	37 nM			CCOc1cc(Cl)c(-c2ccc(-c3nc4ccc(S(=O)(=O)C5CCN(C)CC5)cc4s3)c(=O)[nH]2)cc1N1CCOCC1	
2.3		7000 nM				74%	CN1CCC(S(=O)(=O)c2ccc3nc(NC(=O)NC(=O)c4cc(-n5cccn5)ccc4Cl)sc3c2)CC1	
4		299 nM					CCOc1cc(Cl)c(C(=O)NC(=O)Nc2nc3ccccc3s2)cc1N1CCOCC1	
3.3		32 nM					CCOc1cc(Cl)c(C(=O)NC(=O)Nc2nc3ccc(CN4CCN(C)CC4)cc3s2)cc1N1CCO[C@H](C)C1	
4.2		103 nM					CCOc1cc(Cl)c(C(=O)NC(=O)Nc2ncc(-c3ccccc3)s2)cc1N1CCOCC1	
4		13 nM					CCOc1cc(Cl)c(C(=O)NC(=O)Nc2nc3ccc(CN4CCN(C)CC4)cc3s2)cc1N1CCCC1	
2.5	1 µM (≈ 0.579 µg/mL)	740 nM	> 50000 nM	> 9000 nM			CCOc1cc(Cl)c(C(=O)Nc2nc3ccc(S(=O)(=O)C4CCN(C)CC4)cc3s2)cc1N1CCOCC1	> 80
2.4	470 µM (≈ 299 µg/mL)	160 nM	21000 nM	1400 nM			CCOc1cc(Cl)c(C(=O)Nc2nc3ccc(S(=O)(=O)CCCN4CCN(C)CC4)cc3s2)cc1N1CCO[C@H](C)C1	> 80
	20 µM (≈ 10.9 µg/mL)	> 33000 nM	> 50000 nM				CCOc1cc(Cl)c(NC(=O)Nc2nc3ccc(CN4CCN(C)CC4)cc3s2)cc1N1CCOCC1	
2.5		6100 nM				70%	Cc1cc(Cl)c(C(=O)NC(=O)Nc2nc3ccc(S(=O)(=O)C4CCN(C)CC4)cc3s2)cc1-n1cccn1	
> 3.8	< 0.7 µM	21 nM	1300 nM	610 nM			CCOc1cc(Cl)c(-c2ccc(-c3nc4ccccc4s3)c(=O)[nH]2)cc1N1CCOCC1	
2.4	7 µM (≈ 3.72 µg/mL)	22 nM	1900 nM	910 nM			CCOc1cc(Cl)c(-c2ccc(-c3nc4c(s3)CN(C(=O)CO)CC4)c(=O)[nH]2)cc1N1CCOCC1	
3.4		560 nM					CCOc1ccc(C(=O)NC(=O)Nc2nc3ccc(CN4CCN(C)CC4)cc3s2)c(Cl)c1	
3.3		1400 nM					CCOc1cc(C(F)(F)F)c(C(=O)NC(=O)Nc2nc3ccc(CN4CCN(C)CC4)cc3s2)cc1N1CCOCC1	
3		740 nM				47%	CCOc1ccc(C(=O)NC(=O)Nc2nc3ccc(CN4CCN(C)CC4)cc3s2)cc1N1CCOCC1	
2.3		719 nM					CCOc1cc(Cl)c(C(=O)NC(=O)Nc2nc3c(s2)CN(C(C)=O)CC3)cc1N1CCOCC1	
4		22 nM					CCOc1cc(Cl)c(C(=O)NC(=O)Nc2nc3ccc(CN4CCN(C)CC4)cc3s2)cc1-n1cccc1	
